Test results from ChEMBL document CHEMBL3751705, “Synthesis and antituberculosis activity of indole-pyridine derived hydrazides, hydrazide-hydrazones, and thiosemicarbazones” (Bioorg Med Chem Lett, 2016).
In brackets after ≈: the same amount, converted by molar mass.

What follows are compounds tested on Mycobacterium tuberculosis (assay: Antituberculosis activity against isoniazid-resistant Mycobacterium tuberculosis CN-40 by microdilution method).
Format: functional

Q: With `CCOC(=O)c1[nH]c2ccccc2c1CNNC(=O)c1cc[n+]([O-])cc1` as the compound, how does the MIC read?
A: Its MIC is 10 µg/mL (≈ 28.2 µM).

Q: With `CC(=O)n1cc(NNC(=O)c2ccc[n+]([O-])c2)c2ccccc21` as the compound, how does the MIC read?
A: The MIC was 10 µg/mL (≈ 32.2 µM).

Q: `Cc1ccc2[nH]c(C(=O)O)c(/C=N\NC(=O)c3ccncc3)c2c1` was tested. Which MIC did it give?
A: The MIC was 4 µg/mL (≈ 12.4 µM).

Q: With `CCOC(=O)c1[nH]c2ccccc2c1CNNC(=O)c1ccncc1` as the compound, how does the MIC read?
A: The MIC was 10 µg/mL (≈ 29.6 µM).

Q: `CCOC(=O)c1[nH]c2ccc(C)cc2c1/C=N/NC(N)=S` was tested. Which MIC did it give?
A: The MIC was 2 µg/mL (≈ 6.57 µM).

Q: With `CCOC(=O)c1[nH]c2ccc(C)cc2c1/C=N\NC(=O)c1ccncc1` as the compound, how does the MIC read?
A: The MIC was 2 µg/mL (≈ 5.71 µM).

Q: `CCOC(=O)c1[nH]c2ccc(Cl)cc2c1CNNC(=O)c1ccncc1` was tested. Which MIC did it give?
A: The MIC was 10 µg/mL (≈ 26.8 µM).

Q: Which MIC does the source give for `O=C(N/N=C\c1c[nH]c2ccccc12)c1ccncc1` here?
A: Its MIC is 10 µg/mL (≈ 37.8 µM).

Q: For `NNC(=O)c1ccc[n+]([O-])c1`, which MIC is on record?
A: The MIC was > 20 µg/mL.

Q: With `CCOC(=O)c1[nH]c2ccccc2c1/C=N\NC(=O)c1cc[n+]([O-])cc1` as the compound, how does the MIC read?
A: Its MIC is 10 µg/mL (≈ 28.4 µM).

Q: Which MIC does the source give for `CCOC(=O)c1[nH]c2ccc(C)cc2c1CNNC(=O)c1ccncc1` here?
A: The MIC was 10 µg/mL (≈ 28.4 µM).

Q: How did the MIC turn out when `CCOC(=O)c1[nH]c2ccccc2c1/C=N\NC(=O)c1ccncc1` was run?
A: Its MIC is 2 µg/mL (≈ 5.95 µM).

Q: How did the MIC turn out when `NNC(=O)c1cc[n+]([O-])cc1` was run?
A: The MIC was > 20 µg/mL.

Q: For `O=C(NNCc1c[nH]c2ccccc12)c1ccncc1`, which MIC is on record?
A: Its MIC is 10 µg/mL (≈ 37.6 µM).

Q: How did the MIC turn out when `CCOC(=O)c1[nH]c2ccc(Cl)cc2c1/C=N\NC(=O)c1ccncc1` was run?
A: Its MIC is 2 µg/mL (≈ 5.39 µM).

Q: `CC(=O)n1cc(NNC(=O)c2cc[n+]([O-])cc2)c2ccccc21` was tested. Which MIC did it give?
A: The MIC was 10 µg/mL (≈ 32.2 µM).

Q: How did the MIC turn out when `O=C(N/N=C\c1c[nH]c2ccccc12)c1cc[n+]([O-])cc1` was run?
A: Its MIC is 10 µg/mL (≈ 35.7 µM).

Q: `CC(=O)n1cc(NNC(=O)c2ccncc2)c2ccccc21` was tested. Which MIC did it give?
A: Its MIC is 2 µg/mL (≈ 6.8 µM).

Q: With `NNC(=O)c1ccncc1` [ISONIAZID] as the compound, how does the MIC read?
A: The MIC was 20 µg/mL (≈ 146 µM).

Q: For `NNC(=O)c1cccnc1` [NICOTINIC ACID HYDRAZIDE], which MIC is on record?
A: The MIC was > 20 µg/mL.
